Results as given in patent US10787413B2, “Derivatives of curcuminoids and use thereof as an anticancer agent” (CHINA MEDICAL UNIVERSITY, priority 2016, dated 2020).
Read-outs that look alike come from different tables or passages of the source.

Key:
[1] = test system: MDA-MB-231 breast cancer cell; test: MTT cell viability assay, MDA-MB-231 breast cancer cell; type: cell-based, human
Experimental: Cell viability was evaluated by measuring the reduction in MTT to yield blue formazan. Cells were cultured in 96-well plates, allowed to attach overnight, and then treated with compounds. After treatment, MTT solution (1 mg/ml) was added to each well, and plates were incubated for another 4 h.

[2] = test system: HCT-116 colon cancer cell; test: MTT cell viability assay, HCT-116 colon cancer cell; type: cell-based
Experimental: (§1) Cell viability was evaluated by measuring the reduction in MTT to yield blue formazan. Cells were cultured in 96-well plates, allowed to attach overnight, and then treated with compounds. After treatment, MTT solution (1 mg/ml) was added to each well, and plates were incubated for another 4 h. Medium were removed, blue formazan was dissolved in DMSO, and the absorbance was read at 570 nm^20.

[3] = test system: PC3 prostate cancer cell; test: MTT cell viability assay, PC3 prostate cancer cell; type: cell-based
Experimental: as §1

[4] = MDA-MB-231, treated 24 hours, read-out: IC50 24 hours
[5] = MDA-MB-231, treated 48 hours, read-out: IC50 48 hours
[6] = MDA-MB-231, treated 72 hours, read-out: IC50 72 hours
[7] = HCT-116, treated 24 hours, read-out: IC50 24 hours
[8] = HCT-116, treated 48 hours, read-out: IC50 48 hours
[9] = HCT-116, treated 72 hours, read-out: IC50 72 hours
[10] = PC-3, treated 24 hours, read-out: IC50 24 hours
[11] = PC-3, treated 48 hours, read-out: IC50 48 hours
[12] = PC-3, treated 72 hours, read-out: IC50 72 hours
[13] = Homo sapiens, MDA-MB-231, 24 h, MDA-MB-231, treated 24 hours, read-out: IC50 24 hours
[14] = Homo sapiens, MDA-MB-231, 48 h, MDA-MB-231, treated 48 hours, read-out: IC50 48 hours
[15] = Homo sapiens, MDA-MB-231, 72 h, MDA-MB-231, treated 72 hours, read-out: IC50 72 hours
[16] = Homo sapiens, HCT-116, treated 24 hours, read-out: IC50 24 hours
[17] = Homo sapiens, HCT-116, treated 48 hours, read-out: IC50 48 hours
[18] = Homo sapiens, HCT-116, treated 72 hours, read-out: IC50 72 hours

Row | SMILES | IC50 [1, 4] | IC50 [1, 5] | IC50 [1, 6] | IC50 [2, 7] | IC50 [2, 8] | IC50 [2, 9] | IC50 [3, 10] | IC50 [3, 11] | IC50 [3, 12] | IC50 [1, 13] | IC50 [1, 14] | IC50 [1, 15] | IC50 [2, 16] | IC50 [2, 17] | IC50 [2, 18]
1 | O=C(/C=C/c1ccc(O)cc1)CC(=O)/C=C/c1ccc(O)cc1 [Bisdemethoxycurcumin, bisdemethoxycurcumin, reference compound] | > 100 µM | 26.92 ± 0.19 µM | 27.5 ± 0.42 µM | > 100 µM | 29.6 ± 0.78 µM | 23.7 ± 2.43 µM | > 100 µM | 28.5 ± 1.09 µM | 26.9 ± 4.36 µM | – | – | – | – | – | –
2 | CCC(CO)(CO)C(=O)Oc1ccc(/C=C/C(=O)/C=C(O)/C=C/c2ccc(OC(=O)C(CC)(CO)CO)c(OC)c2)cc1OC [Compound 22a, ((1E,3Z,6E)-3-Hydroxy-1-oxohepta-1,3,6-triene-1,7-diyl)bis(2-methoxy-4,1-phenylene) bis(2,2-bis(hydroxymethyl)butanoate)] | 4.71 ± 0.29 µM | 2.56 ± 0.18 µM | 2 µM | 5.82 ± 0.56 µM | 2.4 ± 0.32 µM | 1.34 ± 0.04 µM | 6.91 ± 0.67 µM | 5.12 ± 0.29 µM | 4.21 ± 0.14 µM | – | – | – | – | – | –
3 | CCC(CO)(CO)C(=O)Oc1cc(/C=C/C(=O)/C=C(O)/C=C/c2ccc(OC)c(O)c2)ccc1OC [Compound 25] | 9.64 ± 0.07 µM | 4.94 ± 0.03 µM | 3.85 µM | 7.62 ± 0.41 µM | 4.77 ± 0.1 µM | 3.64 ± 0.03 µM | 15.9 ± 2.23 µM | 8.74 ± 0.01 µM | 7.03 ± 0.12 µM | – | – | – | – | – | –
4 | CC(CO)(CO)C(=O)Oc1ccc(/C=C/C(=O)CC(=O)/C=C/c2ccc(OC(=O)C(C)(CO)CO)c(OC(F)(F)F)c2)cc1OC(F)(F)F [Compound 28, ((1E,6E)-3,5-dioxohepta-1,6-diene-1,7-diyl)bis(2-(trifluoromethoxy)-4,1-phenylene) bis(3-hydroxy-2-(hydroxymethyl)-2-methylpropanoate)] | – | – | – | – | – | – | 67.1 ± 3.39 µM | 53.9 ± 3.01 µM | 30.2 ± 2.37 µM | 16.6 ± 3.04 µM | 8.6 ± 0.74 µM | 7.78 ± 0.09 µM | 8.94 ± 0.66 µM | 7.11 ± 0.07 µM | 6.27 ± 0.1 µM
5 | CCC(CO)(CO)C(=O)Oc1ccc(/C=C/C(=O)CC(=O)/C=C/c2ccc(OC(=O)C(CC)(CO)CO)c(OC(F)(F)F)c2)cc1OC(F)(F)F [Compound 29, ((1E,6E)-3,5-dioxohepta-1,6-diene-1,7-diyl)bis(2-(trifluoromethoxy)-4,1-phenylene) bis(2,2-bis(hydroxymethyl)butanoate)] | – | – | – | – | – | – | 37 ± 0.56 µM | 29.7 ± 2.83 µM | 8.1 ± 1.56 µM | 9.48 ± 0.44 µM | 7.79 ± 0.61 µM | 7.22 ± 0.41 µM | 7.43 ± 0.1 µM | 4.69 ± 0.49 µM | 4.38 ± 0.26 µM
6 | COc1cc(/C=C/C(=O)/C=C(O)/C=C/c2cc(OC)c(OC(=O)C(C)(CO)CO)c(OC)c2)cc(OC)c1OC(=O)C(C)(CO)CO [Compound 30, ((1E,3Z,6E)-3-hydroxy-5-oxohepta-1,3,6-triene-1,7-diyl)bis(2,6-dimethoxy-4,1-phenylene) bis(3-hydroxy-2-(hydroxymethyl)-2-methylpropanoate)] | – | – | – | – | – | – | 7.79 ± 1.42 µM | 7.7 ± 0.87 µM | 3.14 ± 0.33 µM | 17.5 ± 2.85 µM | 8.9 ± 1.28 µM | 6.19 ± 0.04 µM | 8.34 ± 0.83 µM | 4.77 ± 0.44 µM | 5.18 ± 0.76 µM
7 | CCc1cc(/C=C/C(=O)CC(=O)/C=C/c2cc(CC)c(OC(=O)C(C)(CO)CO)c(CC)c2)cc(CC)c1OC(=O)C(C)(CO)CO [Compound 31, ((1E,6E)-3,5-dioxohepta-1,6-diene-1,7-diyl)bis(2,6-diethyl-4,1-phenylene) bis(3-hydroxy-2-(hydroxymethyl)-2-methylpropanoate)] | – | – | – | – | – | – | 19.9 ± 1.27 µM | 7.49 ± 0.18 µM | 4.14 ± 1.1 µM | 8.68 ± 0.07 µM | 7.4 ± 0.63 µM | 3.82 ± 0.03 µM | 7.21 ± 0.21 µM | 3.67 ± 0.01 µM | 3.51 ± 0.01 µM
8 | COc1cc(/C=C/C(=O)C(Cc2ccccc2)(Cc2ccccc2)C(=O)/C=C/c2ccc(OC(=O)C(C)(CO)CO)c(OC)c2)ccc1OC(=O)C(C)(CO)CO [Compound 35c, ((1E,6E)-4,4-Dibenzyl-3,5-dioxohepta-1,6-dine-1,7-diyl)bis(2-methoxy-4,1-phenylene) bis(3-hydroxy-2-(hydroxymethyl)-2-methylpropanoate)] | 6.03 ± 2.52 µM | 2.45 ± 0.24 µM | 2.11 ± 0.04 µM | 12.9 ± 2.03 µM | 7.66 ± 0.61 µM | 3.88 ± 0.16 µM | 17.59 ± 0.14 µM | 9.09 ± 0.99 µM | 7.28 ± 0.5 µM | – | – | – | – | – | –
9 | C#CCC(CC#C)(C(=O)/C=C/c1ccc(OC(=O)C(C)(CO)CO)c(OC)c1)C(=O)/C=C/c1ccc(OC(=O)C(C)(CO)CO)c(OC)c1 [Compound 35d, ((1E,6E)-3,5-Dioxo-4,4-di(prop-2-yn-1-yl)hepta-1,6-diene-1,7-diyl)bis(2-methoxy-4,1-phenylene) bis(3-hydroxy-2-(hydroxymethyl)-2-methylpropanoate)] | – | – | – | – | – | – | 17.1 ± 1.74 µM | 11.5 ± 0.96 µM | 6.7 ± 0.75 µM | 28.5 ± 5.29 µM | – | 4.9 µM | 14.5 ± 1.01 µM | – | 3.92 ± 0.24 µM
10 | CC(CO)(CO)C(=O)Oc1ccc(/C=C/C(=O)C(C)(C)C(=O)/C=C/c2ccc(OC(=O)C(C)(CO)CO)cc2)cc1 [Compound 36, ((1E,6E)-4,4-Dimethyl-3,5-dioxohepta-1,6-diene-1,7-diyl)bis(4,1-phenylene) bis(3-hydroxy-2-(hydroxymethyl)-2-methylpropanoate)] | – | – | 2.98 ± 0.09 µM | – | – | – | 17.1 ± 1.81 µM | 7.49 ± 0.33 µM | 3.62 ± 0.11 µM | 7.74 ± 0.41 µM | 3.13 ± 0.04 µM | 2.89 µM | 4.12 ± 0.1 µM | 3.43 ± 0.2 µM | 2.63 ± 0.06 µM
11 | COc1ccc(/C=C/C(=O)C(C)(C)C(=O)/C=C/c2ccc(OC)c(OC(=O)C(C)(CO)CO)c2)cc1OC(=O)C(C)(CO)CO [Compound 37, ((1E,6E)-4,4-Dimethyl-3,5-dioxohepta-1,6-dien-1,7-diyl)bis(2-methoxy-5,1-phenylene) bis(3-hydroxy-2-(hydroxymethyl)-2-methylpropanoate)] | – | – | – | – | – | – | 2.86 ± 0.83 µM | 1.59 ± 0.24 µM | 1.84 ± 0.12 µM | 7.6 ± 0.94 µM | 2.71 ± 0.23 µM | 2.7 µM | 5.9 ± 1.87 µM | 2.71 ± 0.39 µM | 1.26 ± 0.04 µM
12 | COc1cc(/C=C/C(=O)CC(=O)/C=C/c2ccc(OC(=O)C(CO)(CO)CO)c(OC)c2)ccc1O [Compound 38a, 4-((1E,6E)-7-(4-hydroxy-3-methoxyphenyl)-3,5-dioxohept-1,6-den-1-yl)-2-methoxyphenyl 3-hydroxy-2,2-bis(hydroxymethyl)propanoate] | – | – | – | – | – | – | 46.5 ± 0.48 µM | 34.9 ± 0.2 µM | 32.7 ± 0.56 µM | 47.3 ± 1.31 µM | 21.1 ± 1.01 µM | 17.5 ± 1.62 µM | 39.59 ± 0.23 µM | 18.4 ± 0.62 µM | 9.86 ± 0.01 µM
13 | COc1cc(/C=C/C(=O)CC(=O)/C=C/c2ccc(OC(=O)C(CO)(CO)COC(=O)C(CO)(CO)CO)c(OC)c2)ccc1O [Compound 38b] | – | – | – | – | – | – | ≥ 100 µM | 67.5 ± 1.25 µM | 63.94 ± 0.47 µM | 82.6 ± 1.67 µM | 64.8 ± 2.39 µM | 55.3 ± 3.2 µM | 75 ± 3.1 µM | 61.3 ± 2.85 µM | 43.7 ± 1.36 µM
